Earlier results in publication PMC7070898 (Clinical and Translational Science, 2019).

Columns and labels:
[1] = patients receiving acalabrutinib ref 12; cited from earlier work
BTK = BTK (Homo sapiens, UniProt Q06187); conditions: single dose, cited from earlier work
BTK, sequence (Q06187 whole entry): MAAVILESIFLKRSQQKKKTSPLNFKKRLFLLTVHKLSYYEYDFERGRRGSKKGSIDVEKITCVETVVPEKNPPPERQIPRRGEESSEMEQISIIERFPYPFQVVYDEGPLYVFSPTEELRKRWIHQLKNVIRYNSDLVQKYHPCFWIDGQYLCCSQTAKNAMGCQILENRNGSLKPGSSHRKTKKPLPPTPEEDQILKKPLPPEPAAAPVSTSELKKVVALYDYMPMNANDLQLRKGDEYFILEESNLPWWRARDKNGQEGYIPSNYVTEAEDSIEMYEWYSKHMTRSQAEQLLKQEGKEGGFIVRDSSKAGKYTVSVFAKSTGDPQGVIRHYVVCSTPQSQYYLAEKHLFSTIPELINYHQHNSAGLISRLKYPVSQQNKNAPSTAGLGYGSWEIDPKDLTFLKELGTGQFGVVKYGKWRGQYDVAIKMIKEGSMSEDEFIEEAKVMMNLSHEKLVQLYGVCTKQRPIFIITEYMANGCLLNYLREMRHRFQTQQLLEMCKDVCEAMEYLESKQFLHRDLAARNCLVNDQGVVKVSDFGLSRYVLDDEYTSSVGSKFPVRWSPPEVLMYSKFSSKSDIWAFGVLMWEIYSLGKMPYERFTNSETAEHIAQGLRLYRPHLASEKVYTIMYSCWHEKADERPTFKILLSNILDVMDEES

| Compound | atrial fibrillation/flutter, patients [1] | BTK occupancy (BTK; five of six healthy subjects, ≤ 4 hours after administration ref 21) | duration of complete or near‐complete BTK occupancy (BTK; healthy subjects ref 21) |
| --- | --- | --- | --- |
| CC#CC(=O)N1CCC[C@H]1c1nc(-c2ccc(C(=O)Nc3ccccn3)cc2)c2c(N)nccn12 [acalabrutinib] | 3% |  |  |
| C=CC(=O)Nc1cccc(Nc2nc(Nc3ccc(OCCOC)cc3)ncc2F)c1 [CC‐292] |  | > 98% | 8 to 24 h |
